Test system: AAT-induced hearing loss (six hours of 4 kHz octave band noise at 105 dB SPL)
Assay: Acute acoustic trauma (AAT) in chinchillas, hearing levels by auditory brainstem response (ABR)
Assay type: in vivo, chinchilla
Details: every tested frequency
Experimental: With reference first to Tables 1-A, 1-B and 1-C, tests were conducted using six chinchillas for each experimental group and the control group. In these tests, the animals were exposed to AAT generated by six hours of noise exposure at 4 kHz octave band noise at 105 dB SPL. Treatments using 4-OHPBN (dosages of 10, 20, 50, and 75 mg/kg), ALCAR (dosages of 0, 20, 30, and 50 mg/kg), and NAC (50, 100, and 200 mg/kg) were given four hours after the AAT by intraperitoneal injection. Hearing levels were determined by auditory brainstem response (ABR) prior to the AAT event (baseline) and at 21 days post injection.
Table 3 depicts the results provided by treatment with a preferred embodiment of the current invention. In this embodiment, the AAT treatment therapy utilized a combination of 4-OHPBN (50 mg/kg) with NAC (100 mg/kg). Treatment consisted of intraperitoneal injection of the combined 4-OHPBN and NAC four hours after the AAT event. In this instance, six chinchillas were used for each test group. The animals were exposed to an AAT event produced by six hours of noise exposure at 4 kHz octave band noise at 105 dB SPL. Hearing levels reported in Table 3 were determined using the ABR method prior to the AAT event and 21 days post AAT. […] As indicated by the * each result was determined to be statistically significant and resulting from the treatment with the combination of 4-OHPBN and NAC. Statistical analysis was carried out using a one way ANOVA procedure and Post hoc test. While the above tests were conducted at the specified dosages, effective results should be realized at dosages between about 5 mg/kg and about 300 mg/kg for NAC and about 5 mg/kg and about 150 mg/kg for 4-OHPBN when NAC and 4-OHPBN are used in combination.
Table 4 depicts the results provided by treatment with another preferred embodiment of the current invention. The test for this embodiment utilized three test groups consisting of six chinchillas each. The chinchillas were exposed to an AAT event generated by a 105 dB narrow-band noise centered at 4 kHz for 6 hours. In this embodiment, the AAT treatment therapy utilized a combination of 4-OHPBN (20 mg/kg) with NAC (50 mg/kg) and ALCAR (20 mg/kg). Treatment consisted of intraperitoneal injection of the combined 4-OHPBN, NAC and ALCAR beginning four hours after noise exposure with injections repeated twice daily for the next two days. The control group was injected with carrier solution. Hearing levels reported in Table 4 were determined using the ABR method prior to the AAT event, immediately after the AAT event and 21 days after the AAT event.
Mean ABR threshold shifts were obtained and statistically analyzed using a two-way ANOVA procedure.

CC(=O)N[C@@H](CS)C(=O)O [NAC, N-acetylcysteine]
p (two way ANOVA and Post hoc test) vs control, ABR hearing level (NAC 100 mg/kg i.p. four hours after AAT): < 0.05
p (two way ANOVA and Post hoc test) vs control, ABR hearing level (NAC 200 mg/kg i.p. four hours after AAT): < 0.05

CC(=O)O[C@H](CC(=O)[O-])C[N+](C)(C)C [ALCAR, Acetyl-L-Carnitine]
p (two way ANOVA and Post hoc test) vs control, ABR hearing level (ALCAR 30 mg/kg i.p. four hours after AAT): < 0.05
p (two way ANOVA and Post hoc test) vs control, ABR hearing level (ALCAR 50 mg/kg i.p. four hours after AAT): < 0.05

Source: US8420595B2, “Methods for treating acute acoustic trauma” (Oklahoma Medical Research Foundation, priority 2006, dated 2013)
